Data from PMC3906678 (Clinical cancer research : an official journal of the …, 2012).
Read-outs that look alike come from different tables or passages of the source.

Columns and labels:
metastatic melanoma [1] = conditions: cited from earlier work
[2] = human, in vivo
metastatic melanoma [3] = conditions: temsirolimus; cited from earlier work
P-AKT Ser473 [4] = conditions: single-agent, matching biopsies, head and neck cancer patients; cited from earlier work
P-AKT Ser473 [5] = conditions: biopsies from treated patients; cited from earlier work
P-S6 = conditions: biopsies from treated patients; cited from earlier work

CNC(=O)c1cc(Oc2ccc(NC(=O)Nc3ccc(Cl)c(C(F)(F)F)c3)cc2)ccn1 [Sorafenib]
Clinical response rate (metastatic melanoma [1]; melanoma patients, sorafenib): 3% | Patients who achieved a clinical response (metastatic melanoma [1]; metastatic melanoma patients, sorafenib monotherapy): one of 37 | Mean Cmax and Cavg at steady-state on Day 15 compared to Day 1 [2]: 2-4 fold

CO[C@H]1C[C@@H]2CC[C@@H](C)[C@@](O)(O2)C(=O)C(=O)N2CCCC[C@H]2C(=O)O[C@H]([C@H](C)C[C@@H]2CC[C@@H](OC(=O)C(C)(CO)CO)[C@H](OC)C2)CC(=O)[C@H](C)/C=C(\C)[C@@H](O)[C@@H](OC)C(=O)[C@H](C)C[C@H](C)/C=C/C=C/C=C/1C [Temsirolimus]
Patients who achieved a clinical response (metastatic melanoma [3]): 1 of 33 | Change in P-AKT Ser473 (P-AKT Ser473 [4]): lack of increase

CO[C@H]1C[C@@H]2CC[C@@H](C)[C@@](O)(O2)C(=O)C(=O)N2CCCC[C@H]2C(=O)O[C@H]([C@H](C)C[C@@H]2CC[C@@H](OCCO)[C@H](OC)C2)CC(=O)[C@H](C)/C=C(\C)[C@@H](O)[C@@H](OC)C(=O)[C@H](C)C[C@H](C)/C=C/C=C/C=C/1C [everolimus]
Change in P-AKT Ser473 (P-AKT Ser473 [5]): increase | Change in P-S6 (P-S6): decrease
